Article PMC8070968, “The Alteration of L-Carnitine Transport and Pretreatment Effect under Glutamate Cytotoxicity on Motor Neuron-Like NSC-34 Lines” (Pharmaceutics, 2021)

Assays:
OCTN1/slc22a4 = target: T1, OCTN1/slc22a4 (Mus musculus, UniProt Q9Z306); assay: [3H]L-carnitine uptake in NSC-34 cells with mOCTN1 siRNA knockdown; type: cell-based
T1 sequence (Q9Z306 1-553): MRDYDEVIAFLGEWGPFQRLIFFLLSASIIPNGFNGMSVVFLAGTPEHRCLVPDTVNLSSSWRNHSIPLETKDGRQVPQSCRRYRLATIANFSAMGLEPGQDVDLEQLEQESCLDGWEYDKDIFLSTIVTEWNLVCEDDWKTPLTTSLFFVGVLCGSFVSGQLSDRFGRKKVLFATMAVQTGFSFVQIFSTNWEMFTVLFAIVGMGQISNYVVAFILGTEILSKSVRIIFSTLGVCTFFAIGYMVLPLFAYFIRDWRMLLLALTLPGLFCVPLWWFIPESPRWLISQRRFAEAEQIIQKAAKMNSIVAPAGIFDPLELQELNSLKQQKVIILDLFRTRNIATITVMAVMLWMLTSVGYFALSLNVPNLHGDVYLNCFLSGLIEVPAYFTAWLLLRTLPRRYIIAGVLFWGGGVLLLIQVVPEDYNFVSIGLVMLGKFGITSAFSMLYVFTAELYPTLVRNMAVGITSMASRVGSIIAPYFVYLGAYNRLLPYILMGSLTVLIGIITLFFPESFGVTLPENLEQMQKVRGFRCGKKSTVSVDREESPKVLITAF

OCTN2/slc22a5 = target: T2, OCTN2/slc22a5 (Mus musculus, UniProt Q9Z0E8); assay: [3H]L-carnitine uptake in NSC-34 cells with mOCTN2 siRNA knockdown; type: cell-based
T2 sequence (Q9Z0E8 1-557): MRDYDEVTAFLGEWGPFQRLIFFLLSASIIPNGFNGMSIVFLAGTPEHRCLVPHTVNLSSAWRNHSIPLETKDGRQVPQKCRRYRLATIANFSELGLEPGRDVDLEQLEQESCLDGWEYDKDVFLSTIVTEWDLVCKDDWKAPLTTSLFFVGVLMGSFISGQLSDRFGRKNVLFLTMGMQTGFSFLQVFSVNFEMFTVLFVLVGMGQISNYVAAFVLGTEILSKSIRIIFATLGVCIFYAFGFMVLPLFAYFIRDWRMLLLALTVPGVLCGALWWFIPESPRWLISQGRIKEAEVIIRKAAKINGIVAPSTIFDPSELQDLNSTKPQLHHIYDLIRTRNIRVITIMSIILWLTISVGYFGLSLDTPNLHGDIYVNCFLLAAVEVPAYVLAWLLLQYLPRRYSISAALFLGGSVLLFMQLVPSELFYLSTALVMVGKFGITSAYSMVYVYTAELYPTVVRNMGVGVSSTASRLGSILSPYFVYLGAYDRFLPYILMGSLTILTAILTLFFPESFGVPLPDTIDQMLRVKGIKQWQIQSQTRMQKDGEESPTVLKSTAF

C[N+](C)(C)C[C@H](O)CC(=O)[O-] [LC, L-carnitine]
[3H]L-carnitine uptake in NSC-34 cells with mOCTN1 siRNA knockdown (OCTN1/slc22a4): OCTN1/slc22a4 and OCTN2/slc22a5 siRNA transfection study revealed both transporters are involved in LC transport in NSC-34 cell lines
[3H]L-carnitine uptake in NSC-34 cells with mOCTN2 siRNA knockdown (OCTN2/slc22a5): mOCTN1 and mOCTN2 siRNA-transfected NSC-34 cell lines demonstrated a significant decrease in the slc22a4 and slc22a5 gene expression level
